Legend:
[1] = ELISA: anti-calcitonin antibody epitope and bone calcium binding on calcium phosphate coated plate (SMCC series); conditions: 1 μg/well, OD 650 nm
Protocol: (§1) sCT or sCT analogues equivalent to 1 μg/well were added in Calcium Phosphate coated Osteoclast Activity Assay Substrate plate (OCT USA, Inc.) in duplicate and the binding of BP to the calcium phosphate was allowed for 1 hours in the presence of 100 μl 100 mM Sodium Phosphate buffer pH 7. Plates were then washed three times with the same buffer containing 0.05% v/v Tween 80 (PBST). To avoid nonspecific binding, the wells were incubated with 3% w/v Bovine Serum Albumin for 1 h at room temperature. After washings, the wells were incubated with 100 μl of 1:5000 diluted rabbit anti-salmon calcitonin primary antibodies (US Biologicals, USA) for 1 h at room temperature. The wells were then washed three times with PBST and the bound antibodies were then incubated with secondary antibody, 1:5000 diluted goat anti-rabbit IgG conjugated with horseradish peroxidase (GAM-HRPO), for 1 h at room temperature. After final washings, 100 μl of 3,3′,5,5′-tetramethylbenzidine (TMB substrate) was added to each well and incubated for 15 min at room temperature. The optical density (OD) was measured at 650 nm using an ELISA Vmax kinetic microplate reader (Molecular Devices Corp., California, and USA).

[2] = Effect on plasma phosphate level in normal rats (SMCC series); format: in vivo, rat; conditions: 20 IU sCT/kg equivalent, subcutaneous
Protocol: (§2) Pharmacodynamic response of sCT analogue was evaluated by analyzing plasma calcium concentration in the rat model. Sprague Dawley female rats weighing 230-260 g (about 6 weeks old) were purchased from Charles River, USA and housed at the University of Alberta Animal Holding Unit. All experimental protocols were approved by the Animals Ethics Committee of the University of Alberta. The rats were divided randomly into five groups of 3 animals each and the pharmacodynamic response was assessed following subcutaneous administration of the sCT or analogue equivalent to 20 IU sCT/kg body weight. Rats were anesthetized using Isoflurane inhalation anesthesia and the 200 μl blood samples were obtained in heparinized Eppendorf microtubes before drug injection. Then 100 μl of sCT or equivalent dose in 20 mM Sodium Acetate buffer pH 5 was sub cu injected and the blood samples were collected 1, 2, 3 and 4 hrs post injection from jugular vein. Blood plasma was obtained by centrifuging the samples at 5000 rpm for 10 min and collecting the supernatant. Plasma calcium level was assayed by QuantiChrom™ Calcium Assay Kit (BioAssay Systems, CA USA) and the plasma phosphate level was assayed by QuantiChrom™ Phosphate Assay Kit (BioAssay Systems, CA USA).

[3] = ELISA: anti-calcitonin antibody epitope binding on calcium phosphate coated plate (PEG series); conditions: 1 μg/well, OD 650 nm
Protocol: as §1, with “with […]” for “with 100 μl”, “primary monoclonal” for “primary”, “were detected using” for “were then incubated with”, “peroxidase (GAM-HRPO)” for “peroxidase (GAM-HRPO),”

[4] = Effect on plasma phosphate level in normal rats (PEG series); format: in vivo, rat; conditions: 20 IU sCT/kg equivalent, subcutaneous
Protocol: as §2, with “was” for “was sub cu”

[5] = Bone mineral specificity: tri-calcium phosphate binding assay; conditions: 1 h, 100 mM phosphate buffer pH 7
Protocol: Bone targeting potential of sCT analogue was evaluated by determining the effect of sCT modification (due to chemical coupling) upon its bone mineral affinity. Specific volume of purified sCT analogue solution containing 10 μg of sCT was mixed with 1 mg Hydroxyapatite (HA) in 150 μL 100 mM phosphate buffer (pH 7.0) in microcentrifuge tubes in duplicate to give a final concentration of 66.67 μg/ml sCT. As a reference, control samples were incubated in tubes without HA (i.e., 0% of binding).
The tubes were incubated at room temperature on a shaker for 1 h, and centrifuged at 5000 g for 5 minutes to separate the HA from the supernatant. sCT concentration in the supernatant was determined using the BCA microprotein assay (Pierce, USA) as described above. HA centrifugate remaining after removal of supernatant was washed five times using 1 mL buffer each time and the last washing after centrifugation at 5000 g for 5 minutes was collected. Both the washings and the HA centrifugate were then analyzed for sCT as described above. The amount of sCT in the supernatant, washings and HA centrifugate was then inferred by measuring the absorbance at 562 nm, with a value of 100% for control samples without HA.
Bone mineral specificity of sCT analogue was then determined in the above manner using HA, calcium carbonate, calcium pyrophosphate, tricalcium phosphate and calcium oxalate.

[6] = first hour, vs acetate buffer controls

Substance: Salmon calcitonin [sCT, reference compound]
- detection in ELISA after binding to calcium phosphate plate [1]: not significantly detected
- percentage of plasma phosphate reduction ([2]; 4 hour post dosing): 14.69±3.71%
- percentage of plasma phosphate reduction [2, 6]: 11.91±6.24%
- percentage of plasma phosphate reduction ([2]; second hour): 11.64±13.01%
- detection in ELISA after binding to calcium phosphate plate [3]: not significantly detected
- percentage of plasma phosphate reduction ([4]; 4 hour post dosing): 15.7±3.7%
- percentage of plasma phosphate reduction [4, 6]: 22.1±6.24%
- percentage of plasma phosphate reduction ([4]; second hour): 22.7±13.01%
- sCT bound to Tri-Calcium Phosphate [5]: no significant difference in the affinity

From US8772235B2, “Compounds having peptides conjugated to bone targeting moieties and methods of making and using thereof” (The Governors of the University of Alberta, priority 2009, dated 2014)
